≈ marks a conversion by molar mass, not a printed value.
Assays:
Streptococcus pneumoniae = assay: In vitro minimum inhibitory concentration against Streptococcus pneumoniae type III; type: functional
Pseudomonas aeruginosa = assay: In vitro minimum inhibitory concentration against Pseudomonas aeruginosa IID1210; type: functional
Escherichia coli = assay: In vitro minimum inhibitory concentration against Escherichia coli NIHJ JC-2; type: functional
Staphylococcus aureus = assay: In vitro minimum inhibitory concentration against Staphylococcus aureus Smith; type: functional
DNA gyrase = DNA gyrase (Staphylococcus aureus, UniProt P0A0K8+P20831); assay: Inhibitory concentration against DNA gyrase of Staphylococcus aureus; type: protein-complex assay

Row | Compound | MIC (Streptococcus pneumoniae) [mg/L] | MIC (Pseudomonas aeruginosa) [mg/L] | MIC (Escherichia coli) [mg/L] | MIC (Staphylococcus aureus) [mg/L] | IC50 (DNA gyrase) [µM]
1 | NC1CCN(c2cc3c(cc2F)c(=O)c(C(=O)O)cn3/C=C/F)C1 (centres undefined) | 6.25 (≈ 18.6 µM) | 3.13 (≈ 9.33 µM) | 0.2 (≈ 0.596 µM) | 1.56 (≈ 4.65 µM) | –
2 | NC1CCN(c2cc3c(cc2F)c(=O)c(C(=O)O)cn3/C=C\F)C1 (centres undefined) | 3.13 (≈ 9.33 µM) | 0.78 (≈ 2.33 µM) | 0.05 (≈ 0.149 µM) | 0.39 (≈ 1.16 µM) | –
3 | CN1CCN(c2cc3c(cc2F)c(=O)c(C(=O)O)cn3/C=C/F)CC1 | 100 (≈ 286 µM) | 6.25 (≈ 17.9 µM) | 0.2 (≈ 0.573 µM) | 3.13 (≈ 8.96 µM) | –
4 | CN1CCN(c2c(F)cc3c(=O)c(C(=O)O)cn(/C=C/F)c3c2F)CC1 | > 50 | 12.5 (≈ 34 µM) | 0.39 (≈ 1.06 µM) | 12.5 (≈ 34 µM) | 1810
5 | O=C(O)c1cn(C2CC2)c2cc(N3CCNCC3)c(F)cc2c1=O [CIPROFLOXACIN] | 0.78 (≈ 2.35 µM) | 0.2 (≈ 0.604 µM) | ≤ 0.0063 | 0.2 (≈ 0.604 µM) | –
6 | CN1CCN(c2c(F)cc3c(=O)c(C(=O)O)cn(CCF)c3c2F)CC1 [FLEROXACIN] | 3.13 (≈ 8.47 µM) | 1.56 (≈ 4.22 µM) | 0.025 (≈ 0.0677 µM) | 0.39 (≈ 1.06 µM) | 185

The remaining molecules from weak to strong by MIC (Streptococcus pneumoniae), led by results:

Row | MIC (Streptococcus pneumoniae) [mg/L] | MIC (Pseudomonas aeruginosa) [mg/L] | MIC (Escherichia coli) [mg/L] | MIC (Staphylococcus aureus) [mg/L] | IC50 (DNA gyrase) [µM] | Compound
7 | 50 (≈ 132 µM) | 25 (≈ 65.9 µM) | 0.2 (≈ 0.527 µM) | 6.25 (≈ 16.5 µM) | – | COc1c(N2CCN(C)CC2)c(F)cc2c(=O)c(C(=O)O)cn(/C=C/F)c12
8 | 12.5 (≈ 34.2 µM) | 6.25 (≈ 17.1 µM) | 0.1 (≈ 0.274 µM) | 6.25 (≈ 17.1 µM) | – | COc1c(N2CCC(N)C2)c(F)cc2c(=O)c(C(=O)O)cn(/C=C/F)c12 (centres undefined)
9 | 12.5 (≈ 35.4 µM) | 1.56 (≈ 4.42 µM) | 0.2 (≈ 0.566 µM) | 3.13 (≈ 8.86 µM) | – | NC1CCN(c2c(F)cc3c(=O)c(C(=O)O)cn(/C=C/F)c3c2F)C1 (centres undefined)
10 | 3.13 (≈ 8.25 µM) | 3.13 (≈ 8.25 µM) | 0.025 (≈ 0.0659 µM) | 0.39 (≈ 1.03 µM) | – | COc1c(N2CCN(C)CC2)c(F)cc2c(=O)c(C(=O)O)cn(/C=C\F)c12
11 | 3.13 (≈ 8.52 µM) | 1.56 (≈ 4.25 µM) | 0.025 (≈ 0.0681 µM) | 0.39 (≈ 1.06 µM) | 197 | CN1CCN(c2c(F)cc3c(=O)c(C(=O)O)cn(/C=C\F)c3c2F)CC1
12 | 3.13 (≈ 8.96 µM) | 1.56 (≈ 4.47 µM) | 0.025 (≈ 0.0716 µM) | 0.2 (≈ 0.573 µM) | – | CN1CCN(c2cc3c(cc2F)c(=O)c(C(=O)O)cn3/C=C\F)CC1
13 | 1.56 (≈ 4.27 µM) | 1.56 (≈ 4.27 µM) | 0.0125 (≈ 0.0342 µM) | 0.39 (≈ 1.07 µM) | – | COc1c(N2CCC(N)C2)c(F)cc2c(=O)c(C(=O)O)cn(/C=C\F)c12 (centres undefined)
14 | 0.78 (≈ 2.21 µM) | 0.39 (≈ 1.1 µM) | 0.05 (≈ 0.142 µM) | 0.2 (≈ 0.566 µM) | – | NC1CCN(c2c(F)cc3c(=O)c(C(=O)O)cn(/C=C\F)c3c2F)C1 (centres undefined)
